The values that follow are results of earlier work, collected in patent US10029020B2, “Fullerene compositions” (UNIVERSITEIT GENT, priority 2015, dated 2018).

One data set has as its system rats. As to conditions: regular administration; Moussa et al., Biomaterials 2012.

For `c12c3c4c5c1c1c6c7c2c2c8c3c3c9c4c4c%10c5c5c1c1c6c6c%11c7c2c2c7c8c3c3c8c9c4c4c9c%10c5c5c1c1c6c6c%11c2c2c7c3c3c8c4c4c9c5c1c1c6c2c3c41` [Polymer C60, buckminsterfullerene (C60)], the water solubility is 10^−8 ng/L. In the data set with rats, the lifespan of rats entry is listed as “doubled”.
